Results taken from patent US20250388574A1, “HETEROCYCLIC COMPOUNDS AS TRIGGERING RECEPTOR EXPRESSED ON MYELOID CELLS 2 AGONISTS AND METHODS OF USE” (AMGEN INC., priority 2020, published 2025).

Molecular target: hTREM2 (Homo sapiens, UniProt Q9NZC2)
Experiment: Phospho-Syk AlphaScreen/AlphaLISA assay in TREM2 and DAP12 overexpressing HEK293 cells (Example A1)
Assay type: cell-based
Set-up: expressed in transfected cells
Settings: HEK293 cells; for EC50: read-out: hTREM2 EC50
In short: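 Agonism read as Syk phosphorylation: compounds in 1% DMSO applied 45 min at room temperature to TREM2/DAP12-HEK293 cells after 20 h culture. Lysis buffer with phosphatase inhibitors and anti-phospho-Syk plus biotinylated anti-Syk antibodies, then AlphaLISA beads (680 nm excitation); percent of control computed from antibody/isotype wells, curves fitted sigmoidally.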

hTREM2, sequence (Q9NZC2 19-230): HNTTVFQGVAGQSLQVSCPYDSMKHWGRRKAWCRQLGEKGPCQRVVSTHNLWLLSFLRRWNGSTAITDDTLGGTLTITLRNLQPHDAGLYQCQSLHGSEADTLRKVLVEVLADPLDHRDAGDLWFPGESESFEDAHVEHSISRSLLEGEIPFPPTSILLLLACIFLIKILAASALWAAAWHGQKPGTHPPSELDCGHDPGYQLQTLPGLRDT
hTREM2, sequence (O43914 22-113 partner): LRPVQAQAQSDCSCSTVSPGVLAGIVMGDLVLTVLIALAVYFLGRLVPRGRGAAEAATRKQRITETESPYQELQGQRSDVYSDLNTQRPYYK

Row | Structure (SMILES) | Emax | EC50
1 | CCn1c(C)nc2cc(N3CCO[C@@H](c4cnn(C5CC5)c4)C3)nc(-c3ccc(F)cc3F)c2c1=O [Example 151, 7-((2S)-2-(1-cyclopropyl-1H-pyrazol-4-yl)-4-morpholinyl)-5-(2,4-difluorophenyl)-3-ethyl-2-methylpyrido[4,3-d]pyrimidin-4(3H)-one] | +++ (Emax>200 and ≤300) | < 50 nM
2 | CCn1c(C)nc2cc(N3CCO[C@H](c4noc(C)n4)C3)nc(-c3ccc(Cl)cc3F)c2c1=O [Example 264, (S)-5-(4-chloro-2-fluorophenyl)-3-ethyl-2-methyl-7-(2-(5-methyl-1,2,4-oxadiazol-3-yl)morpholino)pyrido[4,3-d]pyrimidin-4(3H)-one] | +++ (Emax>200 and ≤300) | 50 to 500 nM
3 | Cc1nc2cc(N3CCO[C@@H](c4cnn(C5COC5)c4)C3)nc(-c3ccc(Cl)cc3F)c2c(=O)n1C [Example 125, 5-(4-chloro-2-fluorophenyl)-2,3-dimethyl-7-((2S)-2-(1-(3-oxetanyl)-1H-pyrazol-4-yl)-4-morpholinyl)pyrido[4,3-d]pyrimidin-4(3H)-one] | ++++ (Emax>300) | < 50 nM
4 | Cc1nc2cc(N3CCO[C@@H](c4cnn(C)c4)C3)nc(-c3cc(F)c(Cl)cc3F)c2c(=O)n1C [Example 11, 5-(4-chloro-2,5-difluorophenyl)-2,3-dimethyl-7-((2S)-2-(1-methyl-1H-pyrazol-4-yl)-4-morpholinyl)pyrido[4,3-d]pyrimidin-4(3H)-one] | ++++ (Emax>300) | 50 to 500 nM
5 | Cc1nc2cc(N3CCC(F)(F)[C@H](N(C)C)C3)nc(-c3ccc(Cl)cc3F)c2c(=O)n1C [Example 250, (R)-5-(4-chloro-2-fluorophenyl)-7-(3-(dimethylamino)-4,4-difluoropiperidin-1-yl)-2,3-dimethylpyrido[4,3-d]pyrimidin-4(3H)-one] | ++++ (Emax>300) | 3000 to 100000 nM
6 | CCCn1c(C)nc2cc(N3CCO[C@@H](C(F)F)C3)nc(-c3ccc(Cl)cc3F)c2c1=O [Example 156, 5-(4-chloro-2-fluorophenyl)-7-((2R)-2-(difluoromethyl)-4-morpholinyl)-2-methyl-3-propylpyrido[4,3-d]pyrimidin-4(3H)-one] | ++++ (Emax>300) | 500 to 3000 nM
7 | Cc1nc2cc(N3CCO[C@H](c4ccnc(OCC(F)(F)F)c4)C3)nc(-c3ccc(Cl)cc3F)c2c(=O)n1C (single isomer, unassigned) [Example 95] | ++++ (Emax>300) | 50 to 500 nM
8 | Cc1nc2cc(N3CCO[C@@H](c4cnn(C(F)(F)F)c4)C3)nc(-c3ccc(Cl)cc3F)c2c(=O)n1C [Example 141, 5-(4-chloro-2-fluorophenyl)-2,3-dimethyl-7-((2S)-2-(1-(trifluoromethyl)-1H-pyrazol-4-yl)-4-morpholinyl)pyrido[4,3-d]pyrimidin-4(3H)-one] | ++++ (Emax>300) | 50 to 500 nM
9 | Cc1nc2cc(N3CCO[C@@H](c4cnn(C)c4)C3)nc(-c3ccc(C(F)(F)F)cc3F)c2c(=O)n1C [Example 13, 5-(2-fluoro-4-(trifluoromethyl)phenyl)-2,3-dimethyl-7-((2S)-2-(1-methyl-1H-pyrazol-4-yl)-4-morpholinyl)pyrido[4,3-d]pyrimidin-4(3H)-one] | ++++ (Emax>300) | 50 to 500 nM
10 | Cc1nc2cc(N3CCO[C@@H](c4ccncc4)C3)nc(-c3ccc(Cl)cc3F)c2c(=O)n1C (single isomer, unassigned) [Example 49] | ++++ (Emax>300) | < 50 nM
11 | Cn1cc([C@H]2CN(c3cc4nc(C5CC5)n(C)c(=O)c4c(-c4ccc(Cl)cc4F)n3)CCO2)cn1 [Example 142, 5-(4-chloro-2-fluorophenyl)-2-cyclopropyl-3-methyl-7-((2S)-2-(1-methyl-1H-pyrazol-4-yl)-4-morpholinyl)pyrido[4,3-d]pyrimidin-4(3H)-one] | ++++ (Emax>300) | 50 to 500 nM
12 | Cc1nc2cc(N3CCO[C@@H](c4cnn(C)c4)C3)nc(-c3ncc(Cl)cc3F)c2c(=O)n1C [Example 216, (S)-5-(5-chloro-3-fluoropyridin-2-yl)-2,3-dimethyl-7-(2-(1-methyl-1H-pyrazol-4-yl)morpholino)pyrido[4,3-d]pyrimidin-4(3H)-one] | ++++ (Emax>300) | 500 to 3000 nM
13 | Cc1nc2cc(N3CCO[C@H](c4cnn(C)c4)C3)nc(-c3ncc(Cl)cc3F)c2c(=O)n1C [Example 217, (R)-5-(5-chloro-3-fluoropyridin-2-yl)-2,3-dimethyl-7-(2-(1-methyl-1H-pyrazol-4-yl)morpholino)pyrido[4,3-d]pyrimidin-4(3H)-one] | +++ (Emax>200 and ≤300) | 3000 to 100000 nM
14 | Cc1ccc([C@H]2CN(c3cc4nc(C)n(C)c(=O)c4c(-c4ccc(Cl)cc4F)n3)CCO2)cn1 (single isomer, unassigned) [Example 139] | ++++ (Emax>300) | 50 to 500 nM
15 | Cc1nc2cc(N3CCO[C@H](c4cnn(C)c4)C3)nc(-c3ccc(Cl)cc3)c2c(=O)n1C [Example 6, 5-(4-chlorophenyl)-2,3-dimethyl-7-((2R)-2-(1-methyl-1H-pyrazol-4-yl)-4-morpholinyl)pyrido[4,3-d]pyrimidin-4(3H)-one] | ++ (Emax>100 and ≤200) | 500 to 3000 nM
16 | Cc1nc2cc(N3CCO[C@H]([C@H]4CCOC4)C3)nc(-c3ccc(Cl)cc3F)c2c(=O)n1C (single isomer, unassigned) [Example 43] | +++ (Emax>200 and ≤300) | 50 to 500 nM
17 | Cc1nc2cc(N3CCO[C@@H](c4cccc(C(F)(F)F)c4)C3)nc(-c3ccc(Cl)cc3F)c2c(=O)n1C (single isomer, unassigned) [Example 91] | ++ (Emax>100 and ≤200) | 500 to 3000 nM
18 | Cc1nc2cc(N3CCO[C@@H](c4ccc(Cl)cc4)C3)nc(-c3ccc(Cl)cc3F)c2c(=O)n1C (single isomer, unassigned) [Example 87] | ++++ (Emax>300) | 500 to 3000 nM
19 | Cc1nnc([C@H]2CN(c3cc4nc(C)n(C)c(=O)c4c(-c4ccc(Cl)cc4F)n3)CCO2)o1 (single isomer, unassigned) [Example 59] | +++ (Emax>200 and ≤300) | 50 to 500 nM
20 | Cc1nc2cc(N3CCCC(N(C)C)C3)nc(-c3ccc(Cl)cc3F)c2c(=O)n1C (stereo not drawn) [Example 109, 5-(4-chloro-2-fluoro-phenyl)-7-(3-(dimethylamino)-1-piperidinyl)-2,3-dimethylpyrido[4,3-d]pyrimidin-4(3H)-one] | ++++ (Emax>300) | 500 to 3000 nM
21 | Cc1ccc([C@H]2C[C@@H](c3cc4nc(C)n(C)c(=O)c4c(-c4ccc(Cl)cc4F)n3)CCO2)cn1 [Example 273, 5-(4-chloro-2-fluorophenyl)-2,3-dimethyl-7-((2R,4S)-2-(6-methylpyridin-3-yl)tetrahydro-2H-pyran-4-yl)pyrido[4,3-d]pyrimidin-4(3H)-one] | ++++ (Emax>300) | 50 to 500 nM
22 | COc1cc([C@@H]2C[C@H](c3cc4nc(C)n(C)c(=O)c4c(-c4ccc(Cl)cc4F)n3)CCO2)ccn1 (single isomer, unassigned) [Example 173] | +++ (Emax>200 and ≤300) | 500 to 3000 nM
23 | Cc1nc2cc(N3CCO[C@@H](c4cnn(C)c4)C3)cc(-c3ccc(Cl)cc3F)c2c(=O)n1C [Example 3, 5-(4-chloro-2-fluorophenyl)-2,3-dimethyl-7-((2S)-2-(1-methyl-1H-pyrazol-4-yl)-4-morpholinyl)-4(3H)-quinazolinone] | +++ (Emax>200 and ≤300) | < 50 nM
24 | CCCn1c(C)nc2cc(N3CCO[C@H](C(F)F)C3)nc(-c3ccc(Cl)cc3F)c2c1=O [Example 183, (S)-5-(4-chloro-2-fluorophenyl)-7-(2-(difluoromethyl)morpholino)-2-methyl-3-propylpyrido[4,3-d]pyrimidin-4(3H)-one] | +++ (Emax>200 and ≤300) | 500 to 3000 nM
25 | Cc1nc2cc(N3CCO[C@@H](c4cnn(C(C)C)c4)C3)nc(-c3ccc(Cl)cc3F)c2c(=O)n1C [Example 123, 5-(4-chloro-2-fluorophenyl)-2,3-dimethyl-7-((2S)-2-(1-(2-propanyl)-1H-pyrazol-4-yl)-4-morpholinyl)pyrido[4,3-d]pyrimidin-4(3H)-one] | ++++ (Emax>300) | < 50 nM
26 | Cc1ncc([C@@H]2CN(c3cc4nc(C)n(C)c(=O)c4c(-c4ccc(Cl)cc4F)n3)CCO2)cn1 (single isomer, unassigned) [Example 64] | ++++ (Emax>300) | 50 to 500 nM
27 | Cc1nc2cc(N3CCOC(c4cnn(C)c4)C3)cc(-c3ncc(Cl)cc3F)c2c(=O)n1C (stereo not drawn) [Example 15, 5-(5-chloro-3-fluoro-2-pyridinyl)-2,3-dimethyl-7-(2-(1-methyl-1H-pyrazol-4-yl)-4-morpholinyl)-4(3H)-quinazolinone] | ++++ (Emax>300) | 500 to 3000 nM
28 | Cc1nc2cc(N3CCO[C@@H](c4ccc(OCC(F)(F)F)nc4)C3)nc(-c3ccc(Cl)cc3F)c2c(=O)n1C [Example 236, (S)-5-(4-chloro-2-fluorophenyl)-2,3-dimethyl-7-(2-(6-(2,2,2-trifluoroethoxy)pyridin-3-yl)morpholino)pyrido[4,3-d]pyrimidin-4(3H)-one] | ++ (Emax>100 and ≤200) | 3000 to 100000 nM
29 | Cc1nc2cc(N3CCOC(c4ccc(C#N)cc4)C3)nc(-c3ccc(Cl)cc3F)c2c(=O)n1C (stereo not drawn) [Example 90, 4-(4-(5-(4-chloro-2-fluorophenyl)-2,3-dimethyl-4-oxo-3,4-dihydropyrido [4,3-d]pyrimidin-7-yl)-2-morpholinyl)benzonitrile] | ++++ (Emax>300) | 50 to 500 nM
30 | CCCn1c(C)nc2cc(N3CCO[C@@H](c4ccnn4C)C3)nc(-c3ccc(Cl)cc3F)c2c1=O [Example 155, 5-(4-chloro-2-fluorophenyl)-2-methyl-7-((2R)-2-(1-methyl-1H-pyrazol-5-yl)-4-morpholinyl)-3-propylpyrido[4,3-d]pyrimidin-4(3H)-one] | ++++ (Emax>300) | 50 to 500 nM
